Test results taken from patent publication US7335501B1, “Phytases and methods for producing these phytases” (Adisseo France S.A.S., priority 2001, dated 2008).

Tested on: Penicillium sp. CBS 109899 phytase (wild type, SEQ ID NO: 3), in crude fungal extract
Assay: Michaelis-Menten constants of the phytase contained in the crude fungal extract (phosphate release from sodium phytate, method of Shimizu)
Type: biochemical
Conditions: substrate sodium phytate, 250 mM acetate buffer with 1 mM CaCl2, pH 5.5, 37° C.
Description: The measurement of phytase activity is based on the method of Shimizu (1992, Biosci. Biotech. Biochem. 56(8), 1266-1269). The principle of this method consists in measuring the amount of inorganic phosphate released during the enzymatic reaction of the phytase with its substrate (solution of sodium phytate prepared at 10 g/l in a 250 mM acetate buffer containing 1 mM CaCl2, pH 5.5). The amount of inorganic phosphate released is measured by reaction of this phosphate with a chromogenic reagent (1 volume of iron sulfate at 10.8% mixed extemporaneously with 4 volumes of ammonium molybdate at 0.012M H2SO4). This reaction leads, in highly acidic medium, to the formation of a colored phosphomolybdate complex (in the presence of Fe^2+), and the amount of complex formed is quantified by measuring the absorbance at 700 nm of the colored solution generated, on a spectrophotometer.
Three reactions are carried out in parallel in order to produce enzymatic kinetics at 10, 20 and 30 minutes at 37° C. […] The sample interference is determined by adding the 20% trichloroacetic acid and then the phytic acid to the crude extract, which may or may not be diluted. […] The intensity of the blue coloration is measured by spectrophotometry at 700 nm. […] The enzymatic activity is determined using the rate of appearance of the phosphate in the course of the enzymatic kinetics. […]

With `O=P(O)(O)O[C@H]1[C@H](OP(=O)(O)O)[C@@H](OP(=O)(O)O)[C@H](OP(=O)(O)O)[C@@H](OP(=O)(O)O)[C@H]1OP(=O)(O)O` [sodium phytate] the “Vmapp (maximum reaction rate)” value was 1.425 μmol of phosphate released per minute and per mg of sample and the Km (substrate concentrations and incubation times modified, read-out: Kmapp) was 550 µM.
